Patent US6737383B1, “Herbicidal oxadiazolidines” (priority 1999, dated 2004)

How the values were obtained:
sugar beet = experiment: Test B pre/postemergence sugar beet; format: in vivo, Beta vulgaris
How it was run: (§1)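 Herbicidal effect was estimated by eye on a ten-point control scale after plants spent twelve to sixteen days in a greenhouse following soil or foliar treatment. Foliar sprays targeted plants at one to four leaves; all doses were formulated in a non-phytotoxic solvent with surfactant.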

rape = experiment: Test B pre/postemergence rape; format: in vivo, Brassica napus
How it was run: as §1

corn = experiment: Test B pre/postemergence corn; format: in vivo, Zea mays
How it was run: as §1

blackgrass = experiment: Test B pre/postemergence blackgrass; format: in vivo, Alopecurus myosuroides
How it was run: as §1

cocklebur = experiment: Test B pre/postemergence cocklebur; format: in vivo, Xanthium strumarium
How it was run: as §1

purple nutsedge = experiment: Test B pre/postemergence purple nutsedge; format: in vivo, Cyperus rotundus
How it was run: as §1

pigweed = experiment: Test B pre/postemergence pigweed; format: in vivo, Amaranthus retroflexus
How it was run: as §1

wild oat = experiment: Test B pre/postemergence wild oat; format: in vivo, Avena fatua
How it was run: as §1

bedstraw = experiment: Test B pre/postemergence bedstraw; format: in vivo, Galium aparine
How it was run: as §1

velvetleaf = experiment: Test B pre/postemergence velvetleaf; format: in vivo, Abutilon theophrasti
How it was run: as §1

soybean = experiment: Test B pre/postemergence soybean; format: in vivo, Glycine max
How it was run: as §1

surinam grass = experiment: Test B pre/postemergence surinam grass; format: in vivo, Brachiaria decumbens
How it was run: as §1

morningglory = experiment: Test B pre/postemergence morningglory; format: in vivo, Ipomoea hederacea
How it was run: as §1

[1] = Postemergence, Rate 125 g/ha, scale of 0 to 10 where 0 is no effect and 10 is complete control
[2] = Preemergence, Rate 62 g/ha, scale of 0 to 10 where 0 is no effect and 10 is complete control
[3] = Preemergence, Rate 125 g/ha, 0 is no effect, 10 is complete control
[4] = Preemergence, Rate 250 g/ha, scale 0 to 10, 0 is no effect, 10 is complete control
[5] = Preemergence, Rate 500 g/ha, scale 0 to 10 (0 no effect, 10 complete control)
[6] = Rate 62 g/ha, Postemergence, scale of 0 to 10 where 0 is no effect and 10 is complete control
[7] = Rate 250 g/ha, Postemergence, scale 0 to 10, 0 is no effect, 10 is complete control
[8] = Rate 500 g/ha, Postemergence, scale 0 to 10

CC(C)N(C(=O)n1oc(=O)n(CC(F)(F)F)c1=O)c1ccc(F)cc1 [Compound 163]
Sugarbeets plant response rating (sugar beet; [1]): 0 | Sugarbeets plant response rating (sugar beet; [2]): 0 | Sugarbeets plant response rating (0 to 10 scale) (sugar beet; [3]): 3 | Sugarbeets plant response rating (sugar beet; [4]): 4 | Sugarbeets plant response rating (sugar beet; [5]): 6 | Sugarbeets plant response rating (sugar beet; [6]): 0 | Plant response rating, Sugarbeets (sugar beet; [7]): 4 | Sugarbeets plant response rating (sugar beet; [8]): 5 | Rape plant response rating (rape; [1]): 0 | Rape plant response rating (rape; [2]): 0 | Rape plant response rating (0 to 10 scale) (rape; [3]): 0 | Rape plant response rating (rape; [4]): 7 | Rape plant response rating (rape; [5]): 8 | Rape plant response rating (rape; [6]): 0 | Plant response rating, Rape (rape; [7]): 2 | Rape plant response rating (rape; [8]): 4 | Corn plant response rating (corn; [1]): 0 | Corn plant response rating (corn; [2]): 0 | Corn plant response rating (0 to 10 scale) (corn; [3]): 0 | Corn plant response rating (corn; [4]): 0 | Corn plant response rating (corn; [5]): 2 | Corn plant response rating (corn; [6]): 0 | Plant response rating, Corn (corn; [7]): 0 | Corn plant response rating (corn; [8]): 0 | Blackgrass plant response rating (blackgrass; [1]): 4 | Blackgrass plant response rating (blackgrass; [2]): 7 | Blackgrass plant response rating (0 to 10 scale) (blackgrass; [3]): 7 | Blackgrass plant response rating (blackgrass; [4]): 10 | Blackgrass plant response rating (blackgrass; [5]): 10 | Blackgrass plant response rating (blackgrass; [6]): 2 | Plant response rating, Blackgrass (blackgrass; [7]): 6 | Blackgrass plant response rating (blackgrass; [8]): 8 | Cocklebur plant response rating (cocklebur; [1]): 0 | Cocklebur plant response rating (cocklebur; [2]): 0 | Cocklebur plant response rating (0 to 10 scale) (cocklebur; [3]): 0 | Cocklebur plant response rating (cocklebur; [5]): 0 | Cocklebur plant response rating (cocklebur; [6]): 0 | Plant response rating, Cocklebur (cocklebur; [7]): 3 | Cocklebur plant response rating (cocklebur; [8]): 3 | Nutsedge plant response rating (purple nutsedge; [1]): 0 | Nutsedge plant response rating (purple nutsedge; [2]): 0 | Nutsedge plant response rating (0 to 10 scale) (purple nutsedge; [3]): 0 | Nutsedge plant response rating (purple nutsedge; [4]): 0 | Nutsedge plant response rating (purple nutsedge; [5]): 0 | Nutsedge plant response rating (purple nutsedge; [6]): 0 | Plant response rating, Nutsedge (purple nutsedge; [7]): 0 | Nutsedge plant response rating (purple nutsedge; [8]): 3 | Redroot pigweed plant response rating (pigweed; [1]): 2 | Redroot pigweed plant response rating (pigweed; [4]): 6 | Redroot pigweed plant response rating (pigweed; [5]): 9 | Redroot pigweed plant response rating (pigweed; [6]): 0 | Plant response rating, Redroot pigweed (pigweed; [7]): 3 | Redroot pigweed plant response rating (pigweed; [8]): 3 | Wild oats plant response rating (wild oat; [2]): 3 | Wild oats plant response rating (0 to 10 scale) (wild oat; [3]): 3 | Wild oats plant response rating (wild oat; [4]): 7 | Wild oats plant response rating (wild oat; [5]): 10 | Plant response rating, Wild oats (wild oat; [7]): 3 | Wild oats plant response rating (wild oat; [8]): 3 | Bedstraw plant response rating (bedstraw; [1]): 4 | Bedstraw plant response rating (bedstraw; [2]): 0 | Bedstraw plant response rating (0 to 10 scale) (bedstraw; [3]): 0 | Bedstraw plant response rating (bedstraw; [4]): 4 | Bedstraw plant response rating (bedstraw; [5]): 4 | Bedstraw plant response rating (bedstraw; [6]): 0 | Plant response rating, Bedstraw (bedstraw; [7]): 7 | Bedstraw plant response rating (bedstraw; [8]): 9 | Velvetleaf plant response rating (velvetleaf; [2]): 0 | Velvetleaf plant response rating (0 to 10 scale) (velvetleaf; [3]): 2 | Velvetleaf plant response rating (velvetleaf; [4]): 5 | Velvetleaf plant response rating (velvetleaf; [5]): 5 | Plant response rating, Velvetleaf (velvetleaf; [7]): 6 | Velvetleaf plant response rating (velvetleaf; [8]): 6 | Soybean plant response rating (soybean; [1]): 2 | Soybean plant response rating (soybean; [2]): 0 | Soybean plant response rating (0 to 10 scale) (soybean; [3]): 0 | Soybean plant response rating (soybean; [4]): 0 | Soybean plant response rating (soybean; [5]): 0 | Soybean plant response rating (soybean; [6]): 2 | Plant response rating, Soybean (soybean; [7]): 3 | Soybean plant response rating (soybean; [8]): 3 | B. signalgrass plant response rating (surinam grass; [1]): 2 | B. signalgrass plant response rating (surinam grass; [2]): 0 | B. signalgrass plant response rating (0 to 10 scale) (surinam grass; [3]): 2 | B. signalgrass plant response rating (surinam grass; [4]): 2 | B. signalgrass plant response rating (surinam grass; [5]): 2 | B. signalgrass plant response rating (surinam grass; [6]): 0 | Plant response rating, B. signalgrass (surinam grass; [7]): 5 | B. signalgrass plant response rating (surinam grass; Rate 500 g/ha, Postemergence, scale 0 to 10, 0 no effect, 10 complete control): 6 | Morningglory plant response rating (morningglory; [1]): 2 | Morningglory plant response rating (morningglory; [2]): 0 | Morningglory plant response rating (0 to 10 scale) (morningglory; [3]): 0 | Morningglory plant response rating (morningglory; [4]): 0 | Morningglory plant response rating (morningglory; [5]): 0 | Morningglory plant response rating (morningglory; [6]): 2 | Plant response rating, Morningglory (morningglory; [7]): 5 | Morningglory plant response rating (morningglory; [8]): 8
